pEC50: −log10 of the molar value.

The test has as its system THP-1 ISG reporter cells. Description: THP-1 ISG reporter cell assay in the context of cGAMP delivery. Type of test: cell-based. The note with it: free cGAMP, dashed line in FIG. 10C; read-out: Half-maximal response of cGAMP. From the text:
The graft copolymers disclosed herein were next tested for bioactivity and drug delivery properties. As illustrated in FIGS. 9A-B, hemolysis, a measure of endosomolytic activity, increases with increasing MW and decreases with increasing hydrophilic weight fraction. Turning to FIGS. 10A-D, THP-1 ISG reporter cells were used to determine cellular uptake and cGAMP delivery.

Regarding `Nc1nc2c(ncn2[C@@H]2O[C@@H]3COP(=O)(O)O[C@H]4[C@@H](O)[C@H](n5cnc6c(N)ncnc65)O[C@@H]4COP(=O)(O)O[C@@H]2[C@@H]3O)c(=O)[nH]1` [cGAMP], the pEC50 is 4.40.

The values above are taken from patent US12508233B2, “Graft copolymers, methods of forming graft copolymers, and methods of use thereof” (Vanderbilt University, priority 2018, dated 2025).
